Data on 2 substances can be found in article PMC6086658, “Unified mechanisms for self-RNA recognition by RIG-I Singleton-Merten syndrome variants” (eLife, 2018).

{Cy3} = Cy3 fluorescent label

In series [1] the target is T1, RIG-I C268F (Homo sapiens, UniProt O95786, C268F).
T1 construct: made in house; host or cells: High Five (Trichoplusia ni) insect cells, baculovirus, pFBDM vector
T1 sequence (O95786 1-925 C268F): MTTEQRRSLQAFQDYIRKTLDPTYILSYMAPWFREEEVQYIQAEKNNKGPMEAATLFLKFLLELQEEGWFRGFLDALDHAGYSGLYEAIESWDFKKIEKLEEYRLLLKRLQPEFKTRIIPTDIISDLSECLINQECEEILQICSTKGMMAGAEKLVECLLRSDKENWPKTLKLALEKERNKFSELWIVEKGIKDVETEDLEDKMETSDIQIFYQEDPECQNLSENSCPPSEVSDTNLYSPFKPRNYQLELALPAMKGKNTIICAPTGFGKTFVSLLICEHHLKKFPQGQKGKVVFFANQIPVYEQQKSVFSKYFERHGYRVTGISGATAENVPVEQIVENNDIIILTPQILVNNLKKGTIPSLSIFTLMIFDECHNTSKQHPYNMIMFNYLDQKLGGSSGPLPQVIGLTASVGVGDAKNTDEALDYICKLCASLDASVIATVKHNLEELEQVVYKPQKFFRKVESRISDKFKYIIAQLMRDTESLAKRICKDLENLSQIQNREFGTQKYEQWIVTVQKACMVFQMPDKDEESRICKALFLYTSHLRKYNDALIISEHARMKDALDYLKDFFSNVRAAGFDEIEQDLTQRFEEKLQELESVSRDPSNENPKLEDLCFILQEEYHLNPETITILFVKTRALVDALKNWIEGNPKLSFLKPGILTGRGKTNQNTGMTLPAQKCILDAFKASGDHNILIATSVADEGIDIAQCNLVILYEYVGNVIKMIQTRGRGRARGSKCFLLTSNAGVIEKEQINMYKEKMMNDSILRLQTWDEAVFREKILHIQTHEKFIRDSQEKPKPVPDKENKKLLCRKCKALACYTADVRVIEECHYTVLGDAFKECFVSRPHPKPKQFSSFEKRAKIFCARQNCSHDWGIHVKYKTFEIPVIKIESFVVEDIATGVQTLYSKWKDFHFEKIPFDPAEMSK
The experiment in a line: Fluorescence anisotropy RNA binding. Conditions: 10 nM labeled RNA, one-site binding fit, n = 4. Here is the method:
(§1) Affinities of full-length RIG-I or RIG-I C268F (1–925, N-terminal His-tag) to a Cy3-labeled hpRNA (5'-Cy3-[…]-3', purchased from Biomers, Ulm, Germany) were determined using fluorescence anisotropy. All samples were prepared in 96-well black chimney microplates (Greiner Bio-One, Kremsmünster, Austria). 10 nM RNA was pre-incubated with different protein concentrations (2.4 nM – 5 µM) for 15 min at room temperature in assay buffer (25 mM HEPES, 50 mM KCl, 5 mM MgCl2, 1 mM DTT, pH 7). Fluorescence anisotropy was measured after the addition of 5 mM ATP using a TECAN M1000 microplate reader (Tecan, Männedorf, Switzerland) at λex/em = 530/570 nm and gain = 130 during a time course of 25 min in 1 min intervals. Assays were performed four times in independent experiments using the same protein purification batch. For determination of affinities, anisotropy values between 15 and 20 min measuring time were averaged and fit to the following single-site binding model using R ([R Development Core Team, 2013]):(1) y=Bmax[P]/P+KD where y is the observed anisotropy, [P] is the protein concentration, Bmax is the maximal anisotropy and KD is the dissociation constant. Fitting was performed globally on all available datasets. Representative values in figures are mean values ± SD.
(In general: Polarisation of emitted light reports the rotation of a fluorescent probe.)

Series [2] deals with T2, RIG-I (Homo sapiens, UniProt O95786).
T2 construct: Recombinant full-length human RIG-I or RIG-I single amino acid mutants (1–925, N-terminal His-tag); made in house; host or cells: High Five (Trichoplusia ni) insect cells, baculovirus, pFBDM vector
T2 sequence (O95786 1-925): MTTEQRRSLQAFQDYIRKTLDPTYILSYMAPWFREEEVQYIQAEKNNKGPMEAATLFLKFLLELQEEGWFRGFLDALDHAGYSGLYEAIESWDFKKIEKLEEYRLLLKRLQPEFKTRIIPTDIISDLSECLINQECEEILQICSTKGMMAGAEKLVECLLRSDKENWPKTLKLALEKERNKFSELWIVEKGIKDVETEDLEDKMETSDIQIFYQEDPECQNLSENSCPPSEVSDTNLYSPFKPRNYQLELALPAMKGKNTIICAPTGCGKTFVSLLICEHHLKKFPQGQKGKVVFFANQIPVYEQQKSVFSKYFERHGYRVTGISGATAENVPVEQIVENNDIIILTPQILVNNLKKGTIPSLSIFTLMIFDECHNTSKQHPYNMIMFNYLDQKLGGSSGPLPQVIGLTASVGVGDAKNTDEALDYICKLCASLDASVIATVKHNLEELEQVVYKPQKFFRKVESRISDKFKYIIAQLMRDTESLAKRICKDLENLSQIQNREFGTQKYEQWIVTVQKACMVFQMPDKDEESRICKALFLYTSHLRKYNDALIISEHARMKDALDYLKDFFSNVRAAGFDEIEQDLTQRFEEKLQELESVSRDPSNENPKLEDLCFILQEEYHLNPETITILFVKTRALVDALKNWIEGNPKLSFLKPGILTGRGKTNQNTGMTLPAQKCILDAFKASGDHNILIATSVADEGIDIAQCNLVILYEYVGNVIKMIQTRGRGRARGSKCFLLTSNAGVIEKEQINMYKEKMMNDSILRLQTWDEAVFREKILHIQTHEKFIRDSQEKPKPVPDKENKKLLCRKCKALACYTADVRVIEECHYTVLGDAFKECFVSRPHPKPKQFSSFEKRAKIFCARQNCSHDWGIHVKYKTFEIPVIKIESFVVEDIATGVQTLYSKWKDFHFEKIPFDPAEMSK
The series can be described thus: Fluorescence anisotropy RNA binding. Conditions: 10 nM labeled RNA, one-site binding fit, n = 4. Here is the method: as §1

For series [3], the target named is T1, RIG-I C268F. The experiment in a line: MANT-nucleotide binding, tryptophan fluorescence FRET. Here is the method: (§2) Binding of MANT-ATP and MANT-ATPγS to different full-length RIG-I mutants (1–925, N-terminal His-tag) was determined via Förster resonance energy transfer from RIG-I to MANT-ATP (Jena Bioscience, Jena, Germany). All samples were prepared in 96-well black chimney microplates. 2.2 µM protein and equimolar concentrations of a 14mer dsRNA (5'-CGACGCUAGCGUCG-3', see 'Protein crystalization') were pre-incubated with different MANT-ATP concentrations (0.2 µM – 200 µM) for 15 min at room temperature in assay buffer (25 mM HEPES, 50 mM NaCl, 5 mM MgCl2, 1 mM DTT, pH 7). Fluorescence of MANT-ATP was measured in a TECAN M1000 microplate reader at λex/em = 290/448 nm, gain = 170 using an average of five reads per well. Assays were performed four times in independent experiments using the same protein purification batch. For determination of affinities fluorescence values were fitted to Equation (1) using R, where y is the fluorescence, [P] is the protein concentration, Bmax is the maximal fluorescence and KD is the dissociation constant. Fitting was performed globally on all available datasets. Representative values in figures are mean values ± SD.

The target in series [4] is T2, RIG-I. Described as above. Conditions: n = 4. Here is the method: as §2, with “All samples were prepared in 96-well black chimney microplates. 2.2 µM protein and equimolar concentrations of a 14mer dsRNA (5'-CGACGCUAGCGUCG-3', see 'Protein crystalization') were pre-incubated with different MANT-ATP concentrations (0.2 µM – 200 µM) for 15 min at room temperature in assay buffer (25 mM HEPES, 50 mM NaCl, 5 mM MgCl2, 1 mM DTT, pH 7).” left out

As to “5'-Cy3-CCACCCGCCCCCCUAGUGAGGGGGGCGGGCC-3' (RNA, 5' {Cy3}, backbone not given here; RNA hairpin ligand with non-base-paired ends, used in fluorescence anisotropy binding assays) [fluorescently labeled 14mer dsRNA, Cy3-labeled hairpin RNA containing non-base-paired RNA ends, purchased from Biomers]”, the Kd (usually the free concentration of one partner at which half of the binding sites on the other are occupied at equilibrium, for simple one-to-one binding) came out at 0.098 µM in series [1] (absence of ATP, read-out: KD, RIG-I C268F); 0.058 µM in series [1] (presence of 5 mM ATP, read-out: KD, RIG-I C268F + ATP); 0.54 µM in series [2] (absence of ATP, read-out: KD, RIG-I); 1.04 µM in series [2] (presence of 5 mM ATP, read-out: KD, RIG-I + ATP).

Consider MANT-ATPγS, for which the Kd in series [3] (absence of RNA, n = 4, read-out: Affinity (KD) to RIG-I C268F) was 116 ± 13 µM; in series [3] (presence of equimolar 14mer dsRNA, n.f. = no fit possible as no saturation was reached, read-out: Affinity (KD) to RIG-I C268F + RNA), 147 ± 55 µM; in series [4] (absence of RNA, full-length His-RIG-I, read-out: Affinity (KD) to RIG-I), 58 ± 7 µM; in series [4] (presence of equimolar 14mer dsRNA, read-out: Affinity (KD) to RIG-I + RNA), 11 ± 1 µM.
